Results as given in patent US20110173718A1, “HERBICIDE TOLERANT PLANTS” (SYNGENTA CROP PROTECTION, INC., priority 2008, published 2011).
Several values for one entry are separate records, joined by “and”; a condition that tells them apart may be missing. Identical values can stand only once.

Key:
Assay type in all cases: in vivo
[1] = test system: weeds; experiment: Glasshouse weed control, HST inhibitors alone and with A22, post-emergence; settings: 14 DAT, single replicate
Experimental: (§1) In a further test, the results of which are depicted in tables 18 and 19, weed seeds are planted out in trays containing 50% peat/50% John Innes no. 3 soil and grown in the glass house at 24-27 C day; 18-21 C night and approximately a 15 h photoperiod. Humidity is ˜65% and light levels at bench level are up to 2 mmol/m^2. Again all spray chemicals are dissolved in 0.2% X77 surfactant and sprayed from a boom on a track sprayer moving at 2 mph with the nozzle set about 2 inches above the plant tops. The spray volume is […]. Sprays are carried out both pre-emergence and post-emergence over small plants at about 7-12 d post-emergence. Plants are assessed at 14 DAT with herbicidal damage scored on a scale from 0 to 100%. The HPPD inhibiting herbicide is compound A22 (4-hydroxy-3-[[2-(2-methoxyethoxy)methyl]-6-(trifluoromethyl)-3-pyridinylicarbonyl]-bicyclo[3.2.1]oct-3-en-2-one) which is sprayed at 2 g/ha both alone and in mixture with various HST herbicides. Results and spray rates are depicted in Tables 18 and 19. Again the Colby formula has been used to calculate synergy scores observed following treatment with the mixture based on the results obtained with the single components alone. Positive synergy is observed between the HPPD herbicide and a wide variety of HST inhibitor herbicides applied both pre and postemergence across a variety of weeds.

[2] = test system: weeds; experiment: Glasshouse weed control, HST inhibitors alone and with A22, pre-emergence; settings: 14 DAT
Experimental: as §1

[3] = test system: wild-type (WT) Samsun tobacco; experiment: Glasshouse spray test, wild-type tobacco; settings: Norflurazon, 150 g/ha; 14 DAT; WT control, reps
Experimental: Rooted transgenic T0 plantlets are transferred from agar and potted into 50% peat, 50% John Innes soil no 3 or, for example, MetroMix® 380 soil (Sun Gro Horticulture, Bellevue, Wash.) with slow-release fertilizer in 3 inch round or 4 inch square pots and left regularly watered to establish for 8-12 d in the glass house. Glass house conditions are about 24-27° C. day; 18-21° C. night and approximately a 14 h (or longer in UK summer) photoperiod. Humidity is ˜65% and light levels up to 2000 μmol/m^2 at bench level. Once new tissue emerges and plants they have reached the 2-4 leaf stage some of the clones from each event are sprayed with test chemicals dissolved in water with 0.2-0.25% X-77 surfactant and sprayed from a boom on a suitable track sprayer moving at 2 mph in a DeVries spray chamber with the nozzle about 2 inches from the plant tops. Spray volume is suitably 25 gallons per acre or, for example, […].
Test chemicals are, for example, compound 2.3 at 500 g/ha. At the same time that transgenic plants are sprayed so too are w/t Samsun tobacco plants grown from seed as well as non-transgenic plants regenerated from tissue culture and non-transgenic tissue culture escapes. Damage is assessed versus unsprayed control plants of like size and development.
6 Seed from w/t Samsun tobacco and 8 T1 seed from events B8 and G9 are also planted out in 3 inch pots, grown on for 7 to 12 d and then, as described in the foregoing examples, the plantlets spray tested for resistance to various chemicals and assessed at 14 DAT. Chemicals are formulated in 0.2% X77 and sprayed at a spray volume of 200 l/ha.
Seed of wild-type tobacco plants, C2 tobacco plants and of the T1 progeny of a further Arabidopsis-HST expressing tobacco line, D2 were planted out in 3 inch pots, grown on, sprayed with compounds 1.1, 2.30 and 3.6 at the rates shown in table 5. Percent damage scores were assessed at 7 DAT. Aside from the presumptive non-transgenic segregants the D2 line containing the Arabidopis HST expression construct offered the highest level of tolerance to the two HST herbicides with the Psuedomonas HPPD, C2 line, offering only marginal tolerance under the conditions of this test.
Single copy events amongst the T1 plant lines are identified by their 3:1 segregation ratio (wrt kanamycin and or herbicide) and by quantitative RT-PCR. Seed from the thus selected T1 tobacco (var Samsun) lines are sown in 3 inch diameter pots containing 50% peat, 50% John Innes soil no 3. After growth to the 3 leaf stage, plants are sprayed, as described above, in order to test for herbicide tolerance relative to like-treated non-transgenic tobacco plants.
Control tobacco plants and transgenic T1 plants expressing either the Pseudomonas or the wheat HPPD gene are sprayed at 37, 111, 333 and 1000 g/ha rates of HST inhibitors and, for example, compound 2.3.
Plants are assessed and scored for % damage at 16 DAT.

In the case of `CC(C)(C)C(=O)Oc1c(-c2c(F)ccc(Cl)c2Cl)c(=O)n(CC(F)F)c2nccnc12` [Compound 2.25], the “% control score, Obs” value ([1]; BRAPL, 15.625 g/ha alone) is reported as 15%, the “% control score, Obs” value ([1]; BRAPL, 62.5 g/ha alone) is reported as 30% and the “% control score, Obs” value ([1]; BRAPL, 250 g/ha alone) is reported as 60%. For the same compound, the “% control score, Obs” value ([1]; DIGSA, 15.625 g/ha alone) was 0%, the “% control score, Obs” value ([1]; DIGSA, 62.5 g/ha alone) was 2% and the “% control score, Obs” value ([1]; DIGSA, 250 g/ha alone) was 10%. For the same compound, the “% control score, Obs” value ([1]; ECHCG, 15.625 g/ha alone) was 1%, the “% control score, Obs” value ([1]; ECHCG, 62.5 g/ha alone) was 2% and the “% control score, Obs” value ([1]; ECHCG, 250 g/ha alone) was 30%. The “% control score, Obs” value ([1]; PANMI, 15.625 g/ha alone) was 2%, the “% control score, Obs” value ([1]; PANMI, 62.5 g/ha alone) was 10% and the “% control score, Obs” value ([1]; PANMI, 250 g/ha alone) was 55%. For the same compound, the “% control score, Obs” value ([1]; SETFA, 15.625 g/ha alone) was 1%, the “% control score, Obs” value ([1]; SETFA, 62.5 g/ha alone) was 5% and the “% control score, Obs” value ([1]; SETFA, 250 g/ha alone) was 40%. For the same compound, the “% control score, Obs” value ([1]; SIDSP, 15.625 g/ha alone) was 10%, the “% control score, Obs” value ([1]; SIDSP, 62.5 g/ha alone) was 30% and the “% control score, Obs” value ([1]; SIDSP, 250 g/ha alone) was 40%. For the same compound, the “BRAPL Obs, % control score” value ([2]; HST inhibitor rate 15.625 g/ha) was 0%, the “BRAPL Obs, % control score” value ([2]; HST inhibitor rate 62.5 g/ha) was 2% and the “BRAPL Obs, % control score” value ([2]; HST inhibitor rate 250 g/ha) was 20%. For the same compound, the “DIGSA Obs, % control score” value ([2]; HST inhibitor rate 15.625 g/ha) was 0%, the “DIGSA Obs, % control score” value ([2]; HST inhibitor rate 62.5 g/ha) was 0% and the “DIGSA Obs, % control score” value ([2]; HST inhibitor rate 250 g/ha) was 5%. The “ECHCG Obs, % control score” value ([2]; HST inhibitor rate 15.625 g/ha) was 0%, the “ECHCG Obs, % control score” value ([2]; HST inhibitor rate 62.5 g/ha) was 0% and the “ECHCG Obs, % control score” value ([2]; HST inhibitor rate 250 g/ha) was 30%. For the same compound, the “PANMI Obs, % control score” value ([2]; HST inhibitor rate 15.625 g/ha) was 0%, the “PANMI Obs, % control score” value ([2]; HST inhibitor rate 62.5 g/ha) was 0% and the “PANMI Obs, % control score” value ([2]; HST inhibitor rate 250 g/ha) was 10%. The “SETFA Obs, % control score” value ([2]; HST inhibitor rate 15.625 g/ha) was 0%, the “SETFA Obs, % control score” value ([2]; HST inhibitor rate 62.5 g/ha) was 1% and the “SETFA Obs, % control score” value ([2]; HST inhibitor rate 250 g/ha) was 15%. The “SIDSP Obs, % control score” value ([2]; HST inhibitor rate 15.625 g/ha) was 0%, the “SIDSP Obs, % control score” value ([2]; HST inhibitor rate 62.5 g/ha) was 1% and the “SIDSP Obs, % control score” value ([2]; HST inhibitor rate 250 g/ha) was 2%.
With `CNc1cnn(-c2cccc(C(F)(F)F)c2)c(=O)c1Cl` [Norflurazon, reference compound] the herbicide % damage [3] was 20% and 15% and 10%.
For `CC(C)C(=O)Oc1c(-c2c(Cl)cccc2C(F)(F)F)c(=O)n(CC(F)F)c2nccnc12` [Compound 2.28], the “% control score, Obs” value ([1]; BRAPL, 15.625 g/ha alone) was 5%, the “% control score, Obs” value ([1]; BRAPL, 62.5 g/ha alone) was 50% and the “% control score, Obs” value ([1]; BRAPL, 250 g/ha alone) was 75%. For the same compound, the “% control score, Obs” value ([1]; DIGSA, 15.625 g/ha alone) was 10%, the “% control score, Obs” value ([1]; DIGSA, 62.5 g/ha alone) was 50% and the “% control score, Obs” value ([1]; DIGSA, 250 g/ha alone) was 70%. For the same compound, the “% control score, Obs” value ([1]; ECHCG, 15.625 g/ha alone) was 2%, the “% control score, Obs” value ([1]; ECHCG, 62.5 g/ha alone) was 40% and the “% control score, Obs” value ([1]; ECHCG, 250 g/ha alone) was 70%. For the same compound, the “% control score, Obs” value ([1]; PANMI, 15.625 g/ha alone) was 1%, the “% control score, Obs” value ([1]; PANMI, 62.5 g/ha alone) was 35% and the “% control score, Obs” value ([1]; PANMI, 250 g/ha alone) was 70%. For the same compound, the “% control score, Obs” value ([1]; SETFA, 15.625 g/ha alone) was 2%, the “% control score, Obs” value ([1]; SETFA, 62.5 g/ha alone) was 50% and the “% control score, Obs” value ([1]; SETFA, 250 g/ha alone) was 80%. For the same compound, the “% control score, Obs” value ([1]; SIDSP, 15.625 g/ha alone) was 15%, the “% control score, Obs” value ([1]; SIDSP, 62.5 g/ha alone) was 40% and the “% control score, Obs” value ([1]; SIDSP, 250 g/ha alone) was 50%. For the same compound, the “BRAPL Obs, % control score” value ([2]; HST inhibitor rate 15.625 g/ha) was 0%, the “BRAPL Obs, % control score” value ([2]; HST inhibitor rate 62.5 g/ha) was 2% and the “BRAPL Obs, % control score” value ([2]; HST inhibitor rate 250 g/ha) was 50%. The “DIGSA Obs, % control score” value ([2]; HST inhibitor rate 15.625 g/ha) was 0%, the “DIGSA Obs, % control score” value ([2]; HST inhibitor rate 62.5 g/ha) was 0% and the “DIGSA Obs, % control score” value ([2]; HST inhibitor rate 250 g/ha) was 30%. For the same compound, the “ECHCG Obs, % control score” value ([2]; HST inhibitor rate 15.625 g/ha) was 0%, the “ECHCG Obs, % control score” value ([2]; HST inhibitor rate 62.5 g/ha) was 50% and the “ECHCG Obs, % control score” value ([2]; HST inhibitor rate 250 g/ha) was 80%. For the same compound, the “PANMI Obs, % control score” value ([2]; HST inhibitor rate 15.625 g/ha) was 0%, the “PANMI Obs, % control score” value ([2]; HST inhibitor rate 62.5 g/ha) was 0% and the “PANMI Obs, % control score” value ([2]; HST inhibitor rate 250 g/ha) was 60%. The “SETFA Obs, % control score” value ([2]; HST inhibitor rate 15.625 g/ha) was 0%, the “SETFA Obs, % control score” value ([2]; HST inhibitor rate 62.5 g/ha) was 25% and the “SETFA Obs, % control score” value ([2]; HST inhibitor rate 250 g/ha) was 60%. The “SIDSP Obs, % control score” value ([2]; HST inhibitor rate 15.625 g/ha) was 0%, the “SIDSP Obs, % control score” value ([2]; HST inhibitor rate 62.5 g/ha) was 0% and the “SIDSP Obs, % control score” value ([2]; HST inhibitor rate 250 g/ha) was 10%.
For `COCCOCc1nc(C(F)(F)F)ccc1C(=O)C1=C(O)C2CCC(C2)C1=O` (stereo not shown) [Compound A22, 4-hydroxy-3-[[2-(2-methoxyethoxy)methyl]-6-(trifluoromethyl)-3-pyridinylicarbonyl]-bicyclo[3.2.1]oct-3-en-2-one, reference compound], the “% control score, Obs” value ([1]; BRAPL, A22 alone 2 g/ha) was 2%, the “% control score, Obs” value ([1]; DIGSA, A22 alone 2 g/ha) was 5% and the “% control score, Obs” value ([1]; ECHCG, A22 alone 2 g/ha) was 30%. For the same compound, the “% control score, Obs” value ([1]; PANMI, A22 alone 2 g/ha) was 50% and 55%, the “% control score, Obs” value ([1]; SETFA, A22 alone 2 g/ha) was 10% and 2% and the “% control score, Obs” value ([1]; SIDSP, A22 alone 2 g/ha) was 20% and 15%. The “BRAPL Obs, % control score” value ([2]; rate 2 g/ha) was 0%, the “DIGSA Obs, % control score” value ([2]; rate 2 g/ha) was 2% and 0% and the “ECHCG Obs, % control score” value ([2]; rate 2 g/ha) was 5% and 0%. The “PANMI Obs, % control score” value ([2]; rate 2 g/ha) was 0%, the “SETFA Obs, % control score” value ([2]; rate 2 g/ha) was 5% and 0% and the “SIDSP Obs, % control score” value ([2]; rate 2 g/ha) was 2% and 0%.
